# Results: patent US20090124659A1, “Combination therapy using 1-aminocyclohexane derivatives and acetylcholinesterase and inhibitors” (priority 2002, published 2009)
# Counter-ions that a name gives are not always drawn.
# Key:
# [1] = 5 mg/day for 28 days in healthy subjects; cited from earlier work
# [2] = system: patients with moderate-to-severe AD; details: Week 24; memantine 20 mg/day or placebo added to stable donepezil
# [3] = system: patients with moderate-to-severe AD; details: Week 24; memantine 20 mg/day or placebo added to stable donepezil; remark: listed apart in the source
# [4] = system: patients with moderate-to-severe AD; details: Week 24; memantine 20 mg/day or placebo added to stable donepezil; remark: listed apart in the source
# [5] = system: patients with moderate-to-severe AD; details: 24 weeks; groups of 202 and 201
# healthy young subjects = details: single 10 mg memantine alone or with multiple daily doses of 10 mg donepezil
# cytochrome P450 system = details: in vitro studies; cited from earlier work
# [6] = humans; cited from earlier work
# [7] = system: human neuroblastoma cells SK-N-SH; assay: Cell viability and toxicity, MTT and LDH assays; details: memantine 1-4 μM
# clinical = details: both, human, plasma, po
# [8] = system: human neuroblastoma cells SK-N-SH; assay: APP processing in cultured SK-N-SH cells (Western immunoblotting or ELISA); type: cell-based; details: memantine 1-4 μM
# Experimental: NMDA receptors have been also implicated in the signalling cascades affecting or affected by APP processing. […] The present inventor and co-workers have studied the effect of memantine (NMDA receptor antagonist) on the processing of APP in cultured human neuroblastoma cells SK-N-SH. Cells were treated with memantine (1-4 μM) or vehicle, and the levels of sAPP and βAP40 in the conditioned media and the total intracellular APP were measured by Western immunoblotting or ELISA using specific antibodies.
# [9] = cited from earlier work
# [10] = system: human neuroblastoma cells; details: in the absence of any detectable cellular damage or toxicity; cited from earlier work
compound,measurement,setting,value
"COc1cc2c(cc1OC)C(=O)C(CC1CCN(Cc3ccccc3)CC1)C2 (racemic) [donepezil, (R,S)-1-benzyl-4-[(5,6-dimethoxy-1-indanon)-2yl]-methylpiperidine hydrochloride]",time of peak plasma concentrations,[1],approximately 3 hours
same,"ADCS-ADL, change from Baseline to Endpoint (LOCF), LS mean change (SE)",[2],−3.4 (0.51)
same,"CIBIC-Plus at Endpoint (LOCF), LS mean (SD)",[3],4.7 (1.05)
same,"SIB, change from Baseline to Endpoint (LOCF), LS mean change (SE)",[4],−2.5 (0.69)
same,"Agitation, %",[5],(11.9) %
same,"Confusion, %",[5],(2.0) %
same,"Constipation, %",[5],(1.5) %
same,"Coughing, %",[5],(1.0) %
same,"Depression, %",[5],(3.0) %
same,"Diarrhoea, %",[5],(8.5) %
same,"Dizziness, %",[5],(8.0) %
same,"Fall, %",[5],(7.0) %
same,"Fatigue, %",[5],(3.5) %
same,"Gait abnormal, %",[5],(1.0) %
same,"Headache, %",[5],(2.5) %
same,"Hypertension, %",[5],(1.5) %
same,"Inflicted injury, %",[5],(8.0) %
same,"Influenza-like symptoms, %",[5],(6.5) %
same,"Oedema peripheral, %",[5],(4.0) %
same,"Pain, %",[5],(0.5) %
same,"Pat. with any AE, %",[5],(71.6) %
same,"Somnolence, %",[5],(3.5) %
same,"Upper resp. tract infection, %",[5],(6.5) %
same,"Urinary incontinence, %",[5],(3.0) %
same,"Urinary tract infection, %",[5],(5.0) %
same,"Vomiting, %",[5],(3.0) %
"CC12CC3CC(C)(C1)CC(N)(C3)C2 [memantine, 1-amino-3,5-dimethyl adamantane]",safety and tolerability,healthy young subjects,safe and well-tolerated
same,potential of drug interactions with drugs metabolized via the cytochrome P450 system,cytochrome P450 system,low potential
same,therapeutically effective circulating concentration,[6],1 µM
same,cell viability and toxicity (MTT and LDH assays),[7],not affected
same,Cmax,clinical,13 ng/mL
same,Cmax,clinical; 10 mg,12.8 ng/mL
same,Tmax,clinical; 10 mg,6.5 h
same,levels of total intracellular APP,[8],without affecting
same,sAPP level in the conditioned media,[8],decrease
same,βAP40 level in the conditioned media,[8],decrease
same,"dose recovered, mainly in the urine",[9]; after administration of 14C memantine,84%
same,absolute bioavailability,"[9]; in vivo, po",approximately 100%
same,half-life,[9]; in vivo,60 to 80 h
"Cl.Nc1c2c(nc3ccccc13)CCCC2 [tacrine, 1,2,3,4-tetrahydro-9-aminoacridine hydrochloride]","release of sAPPα, total βAP, βAP40 and βAP42",[10],reduce
